# Target: T1, GRK6, recombinant full-length GST-tagged human protein (Homo sapiens, UniProt P43250)
# T1 construct: Enzyme: 20 nM GRK6, recombinant full-length GST-tagged human protein; GST
# Experiment: GRK6 assay, IC50 determination (8-point concentration-response)
# Type: biochemical
# Conditions: Series 1 (Table 11); 20 nM GRK6, ATP 12 μM (Km), Peptide 216 1 μM, incubation 7 h
# Procedure: The following assay conditions were used.
# Buffer: 50 mM TRIS-HCl, pH 7.5, 5 mM MgCl2, 2 mM DTT, 0.01% Triton X-100, 10 μM Na3VO4, 10 μM b-GP, 1% DMSO
# Enzyme: 20 nM GRK6, recombinant full-length GST-tagged human protein
# Peptide substrate (Peptide 216): 1 μM
# One hundred two compounds (1-1-1-102) were further characterized by determining IC50 values in a GRK6 assay. This screen has been previously described in WO 2013/063458, which is incorporated by reference in its entirety herein. Briefly, the following activities were performed: 8-point concentration-response determinations in singlicate wells (top concentration=60 μM, 3-fold dilution steps); Repeat tests for QC failed or inconclusive compounds; and Repeat tests (titrate down) for compounds with >50% inhibition at all tested concentrations.
# Twelve compounds (2-1-2-12) were further characterized by determining the IC50 values in a GRK6 assay. This screen has been previously described in WO 2013/063458, which is incorporated by reference in its entirety herein. Specific activities were performed as described above (Example 18).
# Thirty-six compounds (3-1-3-36) were further characterized by determining the IC50 values in a GRK6 assay. This screen has been previously described in WO 2013/063458, which is incorporated by reference in its entirety herein. Specific activities were performed as described above (Example 18).
# Fifty-four compounds (4-1-4-54) were further characterized by determining the IC50 values in a GRK6 assay. This screen has been previously described in WO 2013/063458, which is incorporated by reference in its entirety herein. Specific activities were performed as described above (Example 18).
# T1 sequence (P43250 whole entry): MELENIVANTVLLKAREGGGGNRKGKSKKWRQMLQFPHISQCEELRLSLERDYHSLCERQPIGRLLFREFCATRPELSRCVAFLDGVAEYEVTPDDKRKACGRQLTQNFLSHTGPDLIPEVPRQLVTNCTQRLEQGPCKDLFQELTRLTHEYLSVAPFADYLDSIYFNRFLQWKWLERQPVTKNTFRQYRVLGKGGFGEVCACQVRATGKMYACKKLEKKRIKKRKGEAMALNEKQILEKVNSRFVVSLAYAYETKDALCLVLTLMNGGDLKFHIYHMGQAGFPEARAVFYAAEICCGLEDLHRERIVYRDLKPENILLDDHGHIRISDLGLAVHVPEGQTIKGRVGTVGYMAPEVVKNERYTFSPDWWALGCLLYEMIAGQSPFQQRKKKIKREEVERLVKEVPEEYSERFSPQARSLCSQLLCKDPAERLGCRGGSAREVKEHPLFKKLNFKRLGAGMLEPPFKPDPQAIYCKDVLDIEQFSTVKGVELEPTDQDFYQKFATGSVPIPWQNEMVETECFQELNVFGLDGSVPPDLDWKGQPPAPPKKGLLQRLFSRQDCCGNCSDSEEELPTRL
row,SMILES,IC50
1,CO/N=C/c1cc(-c2ccc(-c3nnc(SCC(=O)O)[nH]3)o2)ccc1OC [Compound 1-71],0.875 µM
2,O=C(O)CSc1nnc(-c2ccc(-c3ccc4c(c3)CCC(=O)N4)o2)[nH]1 [Compound 1-72],0.987 µM
3,O=C(O)CSc1nnc(-c2ccc(-c3ccccc3)o2)[nH]1 [Compound 1-73],0.996 µM
4,CCOC(=O)c1ccc(-c2ccc(-c3nnc(SCC(=O)O)[nH]3)o2)cc1 [Compound 1-74],1.02 µM
5,O=C(O)CSc1nnc(-c2ccc(-c3ccc(C(=O)NC4CC4)cc3)o2)[nH]1 [Compound 1-75],1.05 µM
6,"O=C(O)CSc1nnc(-c2ccc(-c3ccc(Cl)s3)o2)[nH]1 [Compound 1-76, 2-((5-(5-(5-chlorothiophen-2-yl)furan-2-yl)-4H-1,2,4-triazol-3-yl)thio)acetic acid]",1.12 µM
7,COc1ccc2cc(-c3oc(-c4nnc(SCC(=O)O)[nH]4)cc3-c3ccccc3)ccc2c1 [Compound 1-77],1.15 µM
8,CC(C)CCn1ccc(-c2ccc(-c3nnc(SCC(=O)O)[nH]3)o2)n1 [Compound 1-78],1.17 µM
9,O=C(O)CSc1nnc(-c2ccc(-c3ccc4nccnc4c3)o2)[nH]1 [Compound 1-79],1.17 µM
10,O=C(O)CSc1nnc(-c2ccc(-c3ccc[nH]3)o2)[nH]1 [Compound 1-80],1.21 µM
11,COc1ccc(-c2ccc(-c3nnc(SCC(=O)O)[nH]3)o2)cc1 [Compound 1-81],1.21 µM
12,O=C(O)CSc1nnc(-c2ccc(-c3ccc([N+](=O)[O-])cc3)o2)[nH]1 [Compound 1-82],1.31 µM
13,Nc1cccc(-c2ccc(-c3nnc(SCC(=O)O)[nH]3)o2)c1 [Compound 1-83],1.41 µM
14,O=C(O)CSc1nnc(-c2ccc(-c3cccc(OCc4ccc(OC(F)(F)F)c(Cl)c4)c3)o2)[nH]1 [Compound 1-84],1.44 µM
15,O=C(O)CSc1nnc(-c2ccc(-c3ccccc3Cl)o2)[nH]1 [Compound 1-85],1.44 µM
16,O=C(O)CSc1nnc(-c2cc3ccccc3o2)[nH]1 [Compound 1-86],1.57 µM

row,SMILES,IC50
1,Cn1ccc2c(-c3ccc(-c4nnc(SCC(=O)O)[nH]4)o3)cccc21 [Compound 1-87],1.8 µM
2,COc1ccc(-c2ccc(-c3nnc(SCC(=O)O)[nH]3)o2)cn1 [Compound 1-88],1.82 µM
3,O=C(O)CSc1nnc(-c2ccc(Cn3c4ccccc4c4ccccc43)o2)[nH]1 [Compound 1-89],2.02 µM
4,O=C(O)CSc1nnc(-c2ccc(-c3ccc(C(F)(F)F)nc3)o2)[nH]1 [Compound 1-90],2.04 µM
5,O=C(O)CSc1nnc(-c2ccc(-c3ccc(Cl)nc3)o2)[nH]1 [Compound 1-91],2.09 µM
6,"Nc1cc(-c2ccc(-c3nnc(SCC(=O)O)[nH]3)o2)ccn1 [Compound 1-92, 2-((5-(5-(2-aminopyridin-4-yl)furan-2-yl)-4H-1,2,4-triazol-3-yl)thio)acetic acid]",2.17 µM
7,C#Cc1ccc(-c2nnc(SCC(=O)O)[nH]2)o1 [Compound 1-93],2.3 µM
8,O=C(O)CSc1nnc(-c2ccc(-c3ccccc3C(F)(F)F)o2)[nH]1 [Compound 1-94],3.1 µM
9,O=C(O)CSc1nnc(-c2ccc(-c3ccccc3[N+](=O)[O-])o2)[nH]1 [Compound 1-95],3.18 µM
10,Cc1nn(C)cc1-c1ccc(-c2nnc(SCC(=O)O)[nH]2)o1 [Compound 1-96],3.31 µM
11,O=C(O)CSc1nnc(-c2ccc(Br)o2)[nH]1 [Compound 1-97],3.33 µM
12,Cn1cc(-c2ccc(-c3nnc(SCC(=O)O)[nH]3)o2)cn1 [Compound 1-98],3.68 µM
13,Cc1n[nH]c(C)c1-c1ccc(-c2nnc(SCC(=O)O)[nH]2)o1 [Compound 1-99],4.37 µM
14,O=C(O)CSc1nnc(-c2ccc(-c3cnn(CCN4CCOCC4)c3)o2)[nH]1 [Compound 1-100],6.2 µM
15,O=C(O)CSc1nnc(-c2ccc(C(c3ccccc3)c3ccccc3)o2)[nH]1 [Compound 1-101],6.71 µM
16,COC(=O)CSc1nnc(-c2ccc(C#Cc3ccc4ccccc4c3)o2)[nH]1 [Compound 1-102],8.25 µM

# Same assay, conditions: Series 2 (Table 12); conditions as Example 18
row,SMILES,IC50
1,COc1cc(Cl)cc(-c2ccc(-c3cc(SCC(=O)O)n[nH]3)o2)c1 [Compound 2-1],0.309 µM
2,O=C(O)CSc1cc(-c2ccc(-c3ccc(Cl)c(Cl)c3)s2)[nH]n1 [Compound 2-2],0.402 µM
3,O=C(O)CSc1cc(-c2ccc(-c3ccc(Cl)c(Cl)c3)o2)[nH]n1 [Compound 2-3],0.475 µM
4,COc1cc(Cl)cc(-c2ccc(-c3cc(SCC(=O)O)n[nH]3)s2)c1 [Compound 2-4],0.608 µM
5,COc1ccc2cc(C#Cc3ccc(-c4cc(SCC(=O)O)n[nH]4)o3)ccc2c1 [Compound 2-5],0.626 µM
6,COc1ccc2cc(-c3ccc(-c4cc(SCC(=O)O)n[nH]4)s3)ccc2c1 [Compound 2-6],0.721 µM
7,O=C(O)CSc1cc(-c2ccc(-c3ccc4ccccc4c3)s2)[nH]n1 [Compound 2-7],0.788 µM
8,Cn1c2ccccc2c2ccc(-c3ccc(-c4cc(SCC(=O)O)n[nH]4)o3)cc21 [Compound 2-8],1.25 µM
9,O=C(O)CSc1cc(-c2ccc(-c3ccc4c(c3)[nH]c3ccccc34)o2)[nH]n1 [Compound 2-9],1.29 µM
10,COc1ccc2cc(-c3cc(SCC(=O)O)n[nH]3)ccc2c1 [Compound 2-10],1.47 µM
11,O=C(O)CSc1cc(-c2ccc(Br)o2)[nH]n1 [Compound 2-11],5.44 µM
12,"O=C(O)CSc1cc(-c2ccccc2)[nH]n1 [Compound 2-12, 2-[(5-phenyl-1H-pyrazol-3-yl)sulfanyl]acetic acid]",18.3 µM

# Same assay, conditions: Series 3 (Table 13); conditions as Example 18
row,SMILES,IC50
1,c1ccc2cc(-c3ccc(-c4nnc(SCc5nnn[nH]5)[nH]4)o3)ccc2c1 [Compound 3-1],0.442 µM
2,Clc1cc(Cl)cc(-c2ccc(-c3nnc(SCc4nnn[nH]4)[nH]3)o2)c1 [Compound 3-2],0.545 µM
3,c1cnc2ccc(-c3ccc(-c4nnc(SCc5nnn[nH]5)[nH]4)o3)cc2c1 [Compound 3-3],0.667 µM
4,FC(F)(F)c1cc(-c2ccc(-c3nnc(SCc4nnn[nH]4)[nH]3)o2)cc2cccnc12 [Compound 3-4],0.881 µM
5,c1ccc(-c2cccc(-c3ccc(-c4nnc(SCc5nnn[nH]5)[nH]4)o3)c2)cc1 [Compound 3-5],0.9 µM
6,c1ccc2ncc(-c3ccc(-c4nnc(SCc5nnn[nH]5)[nH]4)o3)cc2c1 [Compound 3-6],1.1 µM
7,COc1cc(Cl)cc(-c2cc(-c3nnc(SCc4nnn[nH]4)[nH]3)cc([N+](=O)[O-])c2)c1 [Compound 3-7],1.21 µM
8,c1cc2cc(-c3ccc(-c4nnc(SCc5nnn[nH]5)[nH]4)o3)ccc2[nH]1 [Compound 3-8],1.27 µM
9,COc1ccc(C(F)(F)F)cc1-c1ccc(-c2nnc(SCc3nnn[nH]3)[nH]2)o1 [Compound 3-9],1.28 µM
10,O=c1[nH]c2ccc(-c3ccc(-c4nnc(SCc5nnn[nH]5)[nH]4)o3)cc2[nH]1 [Compound 3-10],1.51 µM
11,COc1ccc2cc(-c3ccc(-c4nnc(SCc5nnn[nH]5)[nH]4)o3)ccc2c1 [Compound 3-11],1.53 µM
12,c1cc2ccc(-c3ccc(-c4nnc(SCc5nnn[nH]5)[nH]4)o3)cc2[nH]1 [Compound 3-12],1.58 µM
13,COc1cc(-c2ccc(-c3nnc(SCc4nnn[nH]4)[nH]3)o2)cc(C(F)(F)F)c1 [Compound 3-13],2.16 µM
14,c1cnc2c(-c3ccc(-c4nnc(SCc5nnn[nH]5)[nH]4)o3)cccc2c1 [Compound 3-14],2.34 µM
15,CC(=O)c1cccc(-c2ccc(-c3nnc(SCc4nnn[nH]4)[nH]3)o2)c1 [Compound 3-15],2.48 µM
16,FC(F)(F)c1cccc(-c2ccc(-c3nnc(SCc4nnn[nH]4)[nH]3)o2)c1 [Compound 3-16],2.55 µM
17,COc1cc(F)cc(-c2ccc(-c3nnc(SCc4nnn[nH]4)[nH]3)o2)c1 [Compound 3-17],2.86 µM
18,Fc1cc(F)cc(-c2ccc(-c3nnc(SCc4nnn[nH]4)[nH]3)o2)c1 [Compound 3-18],3.31 µM
19,FC(F)(F)c1cc(-c2ccc(-c3nnc(SCc4nnn[nH]4)[nH]3)o2)ccc1Cl [Compound 3-19],3.57 µM
20,N#Cc1cccc(-c2ccc(-c3nnc(SCc4nnn[nH]4)[nH]3)o2)c1 [Compound 3-20],3.62 µM
21,CS(=O)(=O)Nc1ccc(-c2ccc(-c3nnc(SCc4nnn[nH]4)[nH]3)o2)cc1 [Compound 3-21],3.71 µM
22,CNS(=O)(=O)c1ccc(-c2ccc(-c3nnc(SCc4nnn[nH]4)[nH]3)o2)cc1 [Compound 3-22],3.78 µM
23,CC(=O)Nc1cccc(-c2ccc(-c3nnc(SCc4nnn[nH]4)[nH]3)o2)c1 [Compound 3-23],3.81 µM
24,Fc1cc(-c2ccc(-c3nnc(SCc4nnn[nH]4)[nH]3)o2)cc(F)c1F [Compound 3-24],3.83 µM
25,CS(=O)(=O)Nc1cccc(-c2ccc(-c3nnc(SCc4nnn[nH]4)[nH]3)o2)c1 [Compound 3-25],4.66 µM
26,Fc1cccc(-c2ccc(-c3nnc(SCc4nnn[nH]4)[nH]3)o2)c1F [Compound 3-26],5.52 µM
27,Fc1cccc(-c2ccc(-c3nnc(SCc4nnn[nH]4)[nH]3)o2)c1 [Compound 3-27],5.63 µM

# — patent US9902739B2, “Small molecule inhibitors of G protein coupled receptor 6 kinases polypeptides” (Mayo Foundation for Medical Education and Research, priority 2014, dated 2018)
